As a reminder, the inhibition is the relative decrease from the control value, in per cent.

Data on nine molecules can be found in article PMC8491554 (Journal of agricultural and food chemistry, 2021).

The structures appear in SMILES notation.

Experiment [1] deals with T1, SARS-CoV-2 Mpro (Severe acute respiratory syndrome coronavirus 2, UniProt P0DTD1). The experiment is described as follows: biochemical. The settings on record: for inhibition at 2 µM / inhibition at 10 µM / inhibition at 50 µM: read-out: inhibition of SARS-CoV-2 Mpro enzyme activity (inhibition rate).
The target in experiment [2] is T1, SARS-CoV-2 Mpro. It is filed as binding. As to conditions: for SPR response units (RUs) in sensorgrams, up to: highest response in SPR sensorgrams; for binding capacity in SPR sensorgrams (in words): Supporting Information.

With `O=C(OC[C@H]1O[C@@H](OC(=O)c2cc(O)c(O)c(O)c2)[C@H](OC(=O)c2cc(O)c(O)c(O)c2)[C@@H](OC(=O)c2cc(O)c(O)c(O)c2)[C@@H]1OC(=O)c1cc(O)c(O)c(O)c1)c1cc(O)c(O)c(O)c1` [PGG, 1,2,3,4,6-penta-O-galloyl-ß-D-glucose], at SARS-CoV-2 Mpro [1], the inhibition at 2 µM came to 14%, the inhibition at 10 µM came to 73% and the inhibition at 50 µM came to 100%. Besides, the “SPR response units (RUs) in sensorgrams, up to” value (“SPR response units (RUs)” for short) at SARS-CoV-2 Mpro [2] is listed as at most 1186 RU.

For `O=c1c(O)c(-c2ccc(O)c(O)c2)oc2cc(O)cc(O)c12` [quercetin, reference compound], on SARS-CoV-2 Mpro [2], the “SPR response units (RUs)” value is recorded as “up to 103 RU”.

With `Oc1cccc(O)c1O` [PYG, pyrogallol], the inhibition at 2 µM on SARS-CoV-2 Mpro [1] stood at 20%. Moreover, at SARS-CoV-2 Mpro [2] (CM5 sensor chip), the reference binding signal result is reported as “less than 10%”. Besides, the “reference signal (reference binding RUs over binding level RUs)” value at SARS-CoV-2 Mpro [2] (PEG sensor chip) amounted to 64%.

Consider `O=c1oc2cc(O)ccc2c2ccccc12` [UB, urolithin B], for which, at SARS-CoV-2 Mpro [2], the “binding capacity in SPR sensorgrams (in words)” value is reported as “weak binding capacity” and the “SPR response units (RUs)” value is listed as under 10 RU.

As for `O=C(OC[C@H]1O[C@@H](OC(=O)c2cc(O)c(O)c(OC(=O)c3cc(O)c(O)c(O)c3)c2)[C@H](OC(=O)c2cc(O)c(O)c(OC(=O)c3cc(O)c(O)c(O)c3)c2)[C@@H](OC(=O)c2cc(O)c(O)c(OC(=O)c3cc(O)c(O)c(O)c3)c2)[C@@H]1OC(=O)c1cc(O)c(O)c(OC(=O)c2cc(O)c(O)c(O)c2)c1)c1cc(O)c(O)c(OC(=O)c2cc(O)c(O)c(O)c2)c1` [TA, tannic acid], the “inhibition of SARS-CoV-2 Mpro enzyme activity (inhibition rate)” value on SARS-CoV-2 Mpro [1] (2 μM) was found to be 13%; on SARS-CoV-2 Mpro [1] (10 μM), 73%; at SARS-CoV-2 Mpro [1] (50 μM), 100%. Further, at SARS-CoV-2 Mpro [2], the “SPR response units (RUs)” value is given as “up to 643 RU”.

In the case of `O=C1O[C@H]2[C@@H]3OC(=O)c4cc(O)c(O)c(O)c4-c4c(O)c(O)c5oc(=O)c6c(c(O)c(O)c7oc(=O)c4c5c76)-c4c(cc(O)c(O)c4O)C(=O)OC[C@H]3OC(O)[C@@H]2OC(=O)c2cc(O)c(O)c(O)c2-c2c1cc(O)c(O)c2O` (mixture of isomers) [PA, punicalagin], on SARS-CoV-2 Mpro [1], the inhibition at 2 µM is 2%, the inhibition at 10 µM came to 59% and the inhibition at 50 µM was 100%.

In the case of `O=c1oc2c(O)c(O)cc3c(=O)oc4c(O)c(O)cc1c4c23` [EA, ellagic acid], at SARS-CoV-2 Mpro [1], the inhibition at 2 µM worked out at 3%, the inhibition at 10 µM is 28% and the inhibition at 50 µM came to 57%.

`O=C(O)c1cc(O)c(O)c(O)c1` [GLA, gallic acid]: the “SPR response units (RUs)” value at SARS-CoV-2 Mpro [2] is listed as “up to 30 RU”.

`O=c1oc2cc(O)ccc2c2ccc(O)cc12` [UA, urolithin A]: the “binding capacity in SPR sensorgrams (in words)” value at SARS-CoV-2 Mpro [2] is “undetectable binding capacity”.
